Data from patent US20040259926A1, “3-Aryloxy and 3-heteroaryloxy substituted benzo[b]thiophenes as therapeutic agents” (priority 2003, published 2004).

What follows are molecules tested against T1, PI3Kγ (recombinant p101/p110γ protein) (Homo sapiens, UniProt P48736) (assay: PI3Kγ In Vitro Kinase Assay). Settings: purified recombinant p101/p110γ with G protein β1/γ2 subunits; 20 μM ATP, [γ-32P-ATP]; 25 μM PIP2 lipid micelles; 20 minutes at room temperature.
T1 construct: HA; made in house; host or cells: Spodoptera frugiperda (Sf9) cells, baculovirus co-infection
T1 sequence (P48736 whole entry, species assumed): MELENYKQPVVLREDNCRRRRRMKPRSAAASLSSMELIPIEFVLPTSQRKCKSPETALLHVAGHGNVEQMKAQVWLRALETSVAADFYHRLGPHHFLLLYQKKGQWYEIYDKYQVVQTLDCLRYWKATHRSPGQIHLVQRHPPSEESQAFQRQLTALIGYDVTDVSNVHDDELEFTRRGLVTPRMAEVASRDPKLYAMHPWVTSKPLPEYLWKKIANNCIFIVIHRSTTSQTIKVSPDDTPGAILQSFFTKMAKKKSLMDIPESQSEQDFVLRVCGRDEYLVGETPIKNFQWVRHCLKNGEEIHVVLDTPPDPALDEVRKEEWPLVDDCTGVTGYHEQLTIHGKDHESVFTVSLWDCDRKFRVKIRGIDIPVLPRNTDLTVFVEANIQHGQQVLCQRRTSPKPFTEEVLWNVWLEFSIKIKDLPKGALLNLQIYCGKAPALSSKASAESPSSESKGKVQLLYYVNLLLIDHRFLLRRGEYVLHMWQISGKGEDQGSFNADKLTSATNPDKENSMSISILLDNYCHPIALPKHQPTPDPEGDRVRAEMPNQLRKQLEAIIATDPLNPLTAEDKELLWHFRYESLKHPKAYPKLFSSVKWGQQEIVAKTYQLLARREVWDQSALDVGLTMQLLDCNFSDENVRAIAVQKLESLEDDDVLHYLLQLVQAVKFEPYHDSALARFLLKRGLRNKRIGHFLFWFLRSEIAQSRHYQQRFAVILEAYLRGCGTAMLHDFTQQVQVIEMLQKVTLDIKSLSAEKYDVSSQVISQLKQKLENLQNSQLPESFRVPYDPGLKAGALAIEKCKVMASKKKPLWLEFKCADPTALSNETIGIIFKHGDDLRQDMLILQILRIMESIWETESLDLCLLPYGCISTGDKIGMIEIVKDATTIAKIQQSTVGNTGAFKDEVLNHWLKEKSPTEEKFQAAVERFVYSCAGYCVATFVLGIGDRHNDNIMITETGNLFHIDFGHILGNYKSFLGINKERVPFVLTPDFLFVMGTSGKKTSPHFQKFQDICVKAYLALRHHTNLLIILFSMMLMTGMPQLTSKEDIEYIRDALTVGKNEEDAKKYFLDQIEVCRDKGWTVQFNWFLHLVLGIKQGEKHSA
T1 sequence (Q8WYR1 whole entry partner, species assumed): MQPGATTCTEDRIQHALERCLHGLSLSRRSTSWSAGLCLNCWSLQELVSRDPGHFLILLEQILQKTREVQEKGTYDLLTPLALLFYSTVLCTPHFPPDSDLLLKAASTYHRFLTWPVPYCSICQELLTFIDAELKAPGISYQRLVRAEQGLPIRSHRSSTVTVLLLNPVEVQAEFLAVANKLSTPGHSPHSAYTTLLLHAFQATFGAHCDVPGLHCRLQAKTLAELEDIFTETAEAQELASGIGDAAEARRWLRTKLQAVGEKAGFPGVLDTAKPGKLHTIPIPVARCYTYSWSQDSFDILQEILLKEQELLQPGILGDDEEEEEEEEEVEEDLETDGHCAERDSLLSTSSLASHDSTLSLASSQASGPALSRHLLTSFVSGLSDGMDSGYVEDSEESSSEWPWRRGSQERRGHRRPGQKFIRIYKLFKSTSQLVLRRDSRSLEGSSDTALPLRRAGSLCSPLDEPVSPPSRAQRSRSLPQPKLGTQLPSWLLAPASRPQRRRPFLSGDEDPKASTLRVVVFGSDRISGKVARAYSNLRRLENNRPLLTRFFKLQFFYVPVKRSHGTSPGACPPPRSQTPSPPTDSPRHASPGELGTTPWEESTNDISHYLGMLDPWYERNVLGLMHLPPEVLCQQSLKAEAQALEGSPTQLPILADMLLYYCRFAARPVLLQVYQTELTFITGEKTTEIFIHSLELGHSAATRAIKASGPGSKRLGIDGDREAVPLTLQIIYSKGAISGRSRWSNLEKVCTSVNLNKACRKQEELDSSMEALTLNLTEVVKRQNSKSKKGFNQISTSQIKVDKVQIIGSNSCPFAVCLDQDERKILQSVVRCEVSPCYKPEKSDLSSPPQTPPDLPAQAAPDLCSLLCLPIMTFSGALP
Format: biochemical
Protocol: Spodtera frugiperda cells, grown in ESF921 media, were coinfected with baculovirus expressing a glu-tagged […] and baculovirus expressing an HA-tagged p110γ, at a 3:1 ratio of p101 baculovirus to p110γ baculovirus. Sf9 cells were grown to 1×10^7 total cells/mL in 10 L bioreactors and harvested 48-72 hours post infection. Samples of infected cells were then tested for expression of p101/p110γ PI3 kinase by immunoprecipitation and Western Blot analysis methods (see below).
To purify PI3Kγ, 4 volumes of room temperature hypotonic lysis buffer (1 mM MgCl2, 1 mM DTT, 5 mM EGTA, 1 mM Pefabloc, 0.5 μM aprotinin, 5 μM leupeptin, 2 μM pepstatin, 5 μM E64, pH 8) per gram of cell paste, was poured onto frozen cell pellets with stirring, then lysed in a nitrogen “bomb” at 400 psi (599 HC T316, Parr Instrument Co, Moline, Ill.). NaCl was added to 150 mM, and sodium cholate was added to 1% and mixed for another 45 minutes. The lysates were clarified by centrifugation for 25 minutes at 14,000 rpm. The lysates were then loaded over anti-glu-linked Protein-G Sepaharose beads (Covance Research Products, Richmond, Calif.) using 20 mL resin/50 g cell paste. The column was washed with 15 volumes of wash buffer (1 mM DTT, 0.2 mM EGTA, 1 mM Pefabloc, 0.5 μM aprotinin, 5 μM leupeptin, 2 μM pepstatin, 5 μM E64, 150 mM NaCl, 1% sodium cholate, pH 8). PI3Kγ was eluted with 6 column volumes of wash buffer that contain 100 μg/mL of a peptide that competes for binding of the glu tag. The column fractions with the eluted protein (determined by taking OD280 readings) were collected and dialyzed in 0.2 mM EGTA, 1 mM DTT, 1 mM Pefabloc, 5 μM leupeptin, 0.5% sodium cholate, 150 mM NaCl, and 50% glycerol, pH 8. The fractions were stored at −80° C. until further use.
Spodtera frugiperda cells were coinfected with baculovirus expressing a glu-tagged G protein β1 and baculovirus expressing a G protein β2 at a 1:1 ratio of glu-tagged G protein β1 baculovirus to G protein β2 baculovirus. Sf9 cells are grown in 10 L bioreactors and harvested 48-72 hours post infection. Samples of infected cells were tested for G protein β1/β2 expression by Western Blot analysis, as described below. Cell lysates were homogenized and loaded onto a column of glu-tagged beads as in Biological Example 1 and competed off the column with a glu peptide and processed as described in Biological Example 1.
The inhibitory properties of the compounds in Table 1 were assayed in an in vitro PI3K assay. In a 96-well polypropylene plate, each well was spotted with 2 μL of 50 times the desired final concentration of compound in DMSO. Purified recombinant p101/p110γ protein (0.03 μg; ˜2.7 nM) and G protein β1/γ2 subunits (0.09 μg; ˜57.7 nM) for each reaction was combined in the assay buffer (30 mM HEPES, 100 mM NaCl, 1 mM EGTA, and 1 mM DTT). ATP and [γ-^32P-ATP] (0.09 μCi) were added to this mixture so that the final ATP concentration in the reaction was 20 μM. Lipid micelles were formed by sonicating phosphatidylinositol-4,5-diphosphate (PIP2), phosphatidylethanolamine (PE), and Na-cholate in the assay buffer for 10 minutes, adding MgCl2 and incubating on ice for 20 minutes, for final concentrations of 25 μM PIP2, 300 μM PE, 0.02% Na-cholate, and 10 mM MgCl2 in the reaction. The reactions were started by adding equal volumes lipid and enzyme mixture in a total volume of 50 μL, allowed to run for 20 minutes at room temperature, and stopped with 100 μL 75 mM H3PO4. The lipid product was transferred to a glass fiber filter plate and washed with 75 mM H3PO4 several times. The presence of radioactive lipid product (PIP3) was measured by adding Wallac Optiphase mix to each well and counting in a Wallac 1450 Trilux plate reader (PerkinElmer Life Sciences Inc., Boston, Mass. 02118). The IC50 for each compound tested is reported in μM in Table 1: […]

IC50	Structure (SMILES)
520 nM	COc1cc2c(Oc3ccc4cc(Br)ccc4c3)c(C(=O)Nc3nn[nH]n3)sc2cc1C [Example B.5, 3-(6-Bromo-naphthalen-2-yloxy)-5-methoxy-6-methyl-benzo[b]thiophene-2-carboxylic acid (2H-tetrazol-5-yl)-amide]
22 nM	COc1cc2c(Oc3ccc(Cl)cc3F)c(C(=O)Nc3nn[nH]n3)sc2cc1C [Example B.40, 3-(4-Chloro-2-fluoro-phenoxy)-5-methoxy-6-methyl-benzo[b]thiophene-2-carboxylic acid (2H-tetrazol-5-yl)-amide]
170 nM	COc1ccc2sc(C(=O)Nc3nn[nH]n3)c(Oc3cccc(C(C)=O)c3)c2c1 [Example A.7, 3-(3-Acetyl-phenoxy)-5-methoxy-benzo[b]thiophene-2-carboxylic acid (2H-tetrazol-5-yl)-amide]
970 nM	COc1cc2sc(C(=O)Nc3nnn[nH]3)c(OCC(c3ccccc3)c3ccccc3)c2cc1OC [Example C.13, 3-(2,2-Diphenyl-ethoxy)-5,6-dimethoxy-benzo[b]thiophene-2-carboxylic acid (1H-tetrazol-5-yl)-amide]
215 nM	COc1cc2sc(C(=O)Nc3nnn[nH]3)c(OCc3cccc(OCC4CCCCC4)c3)c2cc1OC [Example C.26, 3-(3-Cyclohexylmethoxy-benzyloxy)-5,6-dimethoxy-benzo[b]thiophene-2-carboxylic acid (1H-tetrazol-5-yl)-amide]
235 nM	CCOc1ccc(Oc2c(C(=O)Nc3nn[nH]n3)sc3cc(OC)c(C)cc23)cc1 [Example D.5, 3-(4-Ethoxy-phenoxy)-6-methoxy-5-methyl-benzo[b]thiophene-2-carboxylic acid (2H-tetrazol-5-yl)-amide]
115 nM	COc1cc2sc(C(=O)Nc3nnn[nH]3)c(OCCCc3ccccc3)c2cc1OC [Example C.33, 5,6-Dimethoxy-3-(3-phenyl-propoxy)-benzo[b]thiophene-2-carboxylic acid (1H-tetrazol-5-yl)-amide]
160 nM	CCc1cccc(Oc2c(C(=O)Nc3nn[nH]n3)sc3ccc(OC)cc23)c1 [Example A.11, 3-(3-Ethyl-phenoxy)-5-Methoxy-benzo[b]thiophene-2-carboxylic acid (2H-tetrazol-5-yl)-amide]
860 nM	COc1ccc2sc(C(=O)Nc3nn[nH]n3)c(Oc3cccc(NC(C)=O)c3)c2c1 [Example A.6, 3-(3-Acetylamino-phenoxy)-5-methoxy-benzo[b]thiophene-2-carboxylic acid (2H-tetrazol-5-yl)-amide]
35 nM	COc1cc2c(Oc3ccc(C4CCCC4)cc3)c(C(=O)Nc3nn[nH]n3)sc2cc1C [Example B.58, 3-(4-cyclopentyl-phenoxy)-5-methoxy-6-methyl-benzo[b]thiophene-2-carboxylic acid (2H-tetrazol-5-yl)amide]
123 nM	COc1cc2sc(C(=O)Nc3nnn[nH]3)c(OCc3cc(C(C)(C)C)cc(C(C)(C)C)c3)c2cc1OC [Example C.31, 3-(3,5-Di-tert-butyl-benzyloxy)-5,6-dimethoxy-benzo[b]thiophene-2-carboxylic acid (1H-tetrazol-5-yl)-amide]
135 nM	COc1cc2c(Oc3ccc(Cl)c(F)c3)c(C(=O)Nc3nn[nH]n3)sc2cc1C [Example B.41, 3-(4-Chloro-3-fluoro-phenoxy)-5-methoxy-6-methyl-benzo[b]thiophene-2-carboxylic acid (2H-tetrazol-5-yl)-amide]
564 nM	COc1cc2sc(C(=O)Nc3nnn[nH]3)c(OCc3c(F)ccc(F)c3F)c2cc1OC [Example C.8, 5,6-Dimethoxy-3-(2,3,6-trifluoro-benzyloxy)-benzo[b]thiophene-2-carboxylic acid (1H-tetrazol-5-yl)-amide]
79 nM	COc1cc2c(Oc3ccc4ccccc4c3)c(C(=O)Nc3nn[nH]n3)sc2cc1C [Example B.3, 5-Methoxy-6-methyl-3-(naphthalene-2-yloxy)-benzo[b]thiophene-2-carboxylic acid (2H-tetrazol-5-yl)-amide]
268 nM	COc1ccc2sc(C(=O)Nc3nn[nH]n3)c(Oc3cc(C)cc(C(C)C)c3)c2c1 [Example A.14, 3-(3-Isopropyl-5-methyl-phenoxy)-5-Methoxy-benzo[b]thiophene-2-carboxylic acid (2H-tetrazol-5-yl)-amide]
110 nM	COc1cc2c(Oc3cccc(OC4CCCC4)c3)c(C(=O)Nc3nn[nH]n3)sc2cc1C [Example B.34, 3-(3-Cyclopentyloxy-phenoxy)-5-methoxy-6-methyl-benzo[b]thiophene-2-carboxylic acid (2H-tetrazol-5-yl)-amide]
33 nM	COc1cc2c(Oc3ccc(CCC(=O)N4CCCCC4)cc3)c(C(=O)Nc3nn[nH]n3)sc2cc1C [Example B.8, 5-Methoxy-6-methyl-3-[4-(3-oxo-3-piperidin-1-yl-propyl)-phenoxy]-benzo[b]thiophene-2-carboxylic acid (2H-tetrazol-5-yl)-amide]
365 nM	CCCCCCOc1ccc(Oc2c(C(=O)Nc3nn[nH]n3)sc3cc(C)c(OC)cc23)cc1 [Example B.14, 3-(4-Hexyloxy-phenoxy)-5-methoxy-6-methyl-benzo[b]thiophene-2-carboxylic acid (2H-tetrazol-5-yl)-amide]
17 nM	COc1cc2c(Oc3ccc(C4CCCCC4)cc3[N+](=O)[O-])c(C(=O)Nc3nn[nH]n3)sc2cc1C [Example B.70, 5-Methoxy-6-methyl-3-(2-nitro-4-cyclohexyl-phenoxy)-benzo[b]thiophene-2-carboxylic acid (2H-tetrazol-5-yl)-amide]
390 nM	COc1ccc2sc(C(=O)Nc3nn[nH]n3)c(Oc3ccc4ccccc4c3)c2c1 [Example A.10, 5-Methoxy-3-(naphthalene-2-yloxy)-benzo[b]thiophene-2-carboxylic acid (2H-tetrazol-5-yl)-amide]
275 nM	COc1cc2c(Oc3ccc(C4CCCCC4)cc3N)c(C(=O)Nc3nn[nH]n3)sc2cc1C [Example B.71, 3-(2-Amino-4-cyclohexyl-phenoxy)-5-methoxy-6-methyl-benzo[b]thiophene-2-carboxylic acid (2H-tetrazol-5-yl)-amide]
1800 nM	COc1cc2sc(C(=O)Nc3nnn[nH]3)c(O[C@H](C)Cc3ccccc3)c2cc1OC [Example C.10, 5,6-Dimethoxy-3-((R)-1-methyl-2-phenyl-ethoxy)-benzo[b]thiophene-2-carboxylic acid (1H-tetrazol-5-yl)-amide]
31 nM	CCCCc1ccc(Oc2c(C(=O)Nc3nn[nH]n3)sc3cc(C)c(OC)cc23)cc1 [Example B.13, 3-(4-Butyl-phenoxy)-5-methoxy-6-methyl-benzo[b]thiophene-2-carboxylic acid (2H-tetrazol-5-yl)-amide]

Structure (SMILES)	IC50
COc1cc2c(Oc3ccc(CCBr)cc3)c(C(=O)Nc3nn[nH]n3)sc2cc1C [Example B.10, 3-[4-(2-Bromo-ethyl)-phenoxy]-5-methoxy-6-methyl-benzo[b]thiophene-2-carboxylic acid (2H-tetrazol-5-yl)-amide]	15 nM
COc1cc2c(Oc3ccc4c(c3)CCCC4)c(C(=O)Nc3nn[nH]n3)sc2cc1C [Example B.11, 5-Methoxy-6-methyl-3-(5,6,7,8-tetrahydro-naphthalen-2yloxy)-benzo[b]thiophene-2-carboxylic acid (2H-tetrazol-5-yl)-amide]	86 nM
